Test results taken from patent US11807835B2, “Detergent compositions containing a stabilized enzyme by phosphonates” (ECOLAB USA INC., priority 2016, dated 2023).

Tests used:
Assay type in all cases: biochemical
amylase = assay: Amylase activity retention in detergent use solution (4000 ppm, 5 GPG water; ethylidene substrate EPS, HEPES buffer pH 8.0)
How it was run: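 Detergent use solution at 4000 ppm in 5 GPG water held at 120° F.; aliquots taken up to 4 h, flash-frozen, then assayed with p-nitrophenyl valerate in TRIS pH 8.0 (lipase) or EPS substrate in HEPES pH 8.0 (amylase). Retention given as % activity relative to t=0.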

[1] = system: enzyme (protease, amylase, lipase); assay: Overall effects of phosphonates on enzyme activity (Table 3); conditions: overall effect of the phosphonate on enzyme activity in the detergent use solution
How it was run: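 Protease, amylase and lipase activity in detergent use solutions with varied phosphonate levels, 4000 ppm in 5 GPG water at 120° F., sampled up to 4 h and frozen at −80° C. before assay. Activity given as % retention relative to t=0 (100%).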

lipase = assay: Lipase activity retention in detergent use solution (4000 ppm, 5 GPG water; p-nitrophenyl valerate, TRIS buffer pH 8.0); conditions: for Relative Lipase Enzyme Activity in a Use Solution of the All Ash Detergent Composition: Table 6F, 120º F.; for Relative Lipase Enzyme Activity: base formula
How it was run: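 Lipase stability was measured in a detergent use solution under conditions mimicking presoak or manual warewash, with stirring in a water bath. Aliquots were taken over time and flash-frozen. Thawed samples were diluted in TRIS buffer at pH 8.0 and assayed with p-nitrophenyl valerate as substrate on a plate reader. Activity is reported as % retained relative to the time=0 sample.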

Diglycolamine phosphonate [DGAP]
Relative Amylase Enzyme Activity (amylase; All Ash formula, phosphonate 0.3 wt-%, use solution at 120° F., time 0 min): 100.00%
Relative Amylase Enzyme Activity (amylase; All Ash formula, phosphonate 0.3 wt-%, use solution at 120° F., time 5 min): 89.94%
Relative Amylase Enzyme Activity (amylase; All Ash formula, phosphonate 0.3 wt-%, use solution at 120° F., time 10 min): 87.50%
Relative Amylase Enzyme Activity (amylase; All Ash formula, phosphonate 0.3 wt-%, use solution at 120° F., time 20 min): 88.87%
Relative Amylase Enzyme Activity (amylase; All Ash formula, phosphonate 0.3 wt-%, use solution at 120° F., time 40 min): 86.87%
Relative Amylase Enzyme Activity (amylase; All Ash formula, phosphonate 0.3 wt-%, use solution at 120° F., time 60 min): 82.06%
Relative Amylase Enzyme Activity (amylase; All Ash formula, phosphonate 0.3 wt-%, use solution at 120° F., time 90 min): 81.79%
Relative Amylase Enzyme Activity (amylase; All Ash formula, phosphonate 0.3 wt-%, use solution at 120° F., time 120 min): 75.74%
Relative Amylase Enzyme Activity (amylase; All Ash formula, phosphonate 0.3 wt-%, use solution at 120° F., time 150 min): 79.71%
Relative Amylase Enzyme Activity (amylase; All Ash formula, phosphonate 0.3 wt-%, use solution at 120° F., time 180 min): 65.75%
Relative Amylase Enzyme Activity (amylase; All Ash formula, phosphonate 0.3 wt-%, use solution at 120° F., time 210 min): 71.27%
Relative Amylase Enzyme Activity (amylase; All Ash formula, phosphonate 0.3 wt-%, use solution at 120° F., time 240 min): 70.12%
amylase stability in all ash formula (amylase; all ash formula, versus same composition with PBTC or HEDP without amine(s), FIG. 4D): more stable
Relative Amylase Enzyme Activity (amylase; base formula, phosphonate 0.3 wt-%, use solution at 120° F., time 0 min): 39.01%
Relative Amylase Enzyme Activity (amylase; base formula, phosphonate 0.3 wt-%, use solution at 120° F., time 5 min): 100.00%
Relative Amylase Enzyme Activity (amylase; base formula, phosphonate 0.3 wt-%, use solution at 120° F., time 10 min): 113.48%
Relative Amylase Enzyme Activity (amylase; base formula, phosphonate 0.3 wt-%, use solution at 120° F., time 20 min): 112.07%
Relative Amylase Enzyme Activity (amylase; base formula, phosphonate 0.3 wt-%, use solution at 120° F., time 40 min): 110.36%
Relative Amylase Enzyme Activity (amylase; base formula, phosphonate 0.3 wt-%, use solution at 120° F., time 60 min): 109.99%
Relative Amylase Enzyme Activity (amylase; base formula, phosphonate 0.3 wt-%, use solution at 120° F., time 90 min): 118.04%
Relative Amylase Enzyme Activity (amylase; base formula, phosphonate 0.3 wt-%, use solution at 120° F., time 120 min): 110.39%
Relative Amylase Enzyme Activity (amylase; base formula, phosphonate 0.3 wt-%, use solution at 120° F., time 150 min): 111.92%
Relative Amylase Enzyme Activity (amylase; base formula, phosphonate 0.3 wt-%, use solution at 120° F., time 180 min): 112.24%
Relative Amylase Enzyme Activity (amylase; base formula, phosphonate 0.3 wt-%, use solution at 120° F., time 210 min): 115.96%
Relative Amylase Enzyme Activity (amylase; base formula, phosphonate 0.3 wt-%, use solution at 120° F., time 240 min): 110.74%
Relative Amylase Enzyme Activity (amylase; base formula, phosphonate 0.6 wt-%, use solution at 120º F., time 0 min): 100.00%
Relative Amylase Enzyme Activity (amylase; base formula, phosphonate 0.6 wt-%, use solution at 120º F., time 5 min): 102.43%
Relative Amylase Enzyme Activity (amylase; base formula, phosphonate 0.6 wt-%, use solution at 120º F., time 10 min): 95.89%
Relative Amylase Enzyme Activity (amylase; base formula, phosphonate 0.6 wt-%, use solution at 120º F., time 20 min): 99.40%
Relative Amylase Enzyme Activity (amylase; base formula, phosphonate 0.6 wt-%, use solution at 120º F., time 40 min): 97.26%
Relative Amylase Enzyme Activity (amylase; base formula, phosphonate 0.6 wt-%, use solution at 120º F., time 60 min): 100.23%
Relative Amylase Enzyme Activity (amylase; base formula, phosphonate 0.6 wt-%, use solution at 120º F., time 90 min): 95.37%
Relative Amylase Enzyme Activity (amylase; base formula, phosphonate 0.6 wt-%, use solution at 120º F., time 120 min): 102.17%
Relative Amylase Enzyme Activity (amylase; base formula, phosphonate 0.6 wt-%, use solution at 120º F., time 150 min): 102.37%
Relative Amylase Enzyme Activity (amylase; base formula, phosphonate 0.6 wt-%, use solution at 120º F., time 180 min): 101.89%
Relative Amylase Enzyme Activity (amylase; base formula, phosphonate 0.6 wt-%, use solution at 120º F., time 210 min): 102.69%
Relative Amylase Enzyme Activity (amylase; base formula, phosphonate 0.6 wt-%, use solution at 120º F., time 240 min): 105.89%
Relative Amylase Enzyme Activity (amylase; base formula, phosphonate at 0.1% elemental phosphorus level, use solution at 120º F., time 0 min): 100.00%
Relative Amylase Enzyme Activity (amylase; base formula, phosphonate at 0.1% elemental phosphorus level, use solution at 120º F., time 5 min): 98.51%
Relative Amylase Enzyme Activity (amylase; base formula, phosphonate at 0.1% elemental phosphorus level, use solution at 120º F., time 10 min): 108.49%
Relative Amylase Enzyme Activity (amylase; base formula, phosphonate at 0.1% elemental phosphorus level, use solution at 120º F., time 40 min): 97.68%
Relative Amylase Enzyme Activity (amylase; base formula, phosphonate at 0.1% elemental phosphorus level, use solution at 120º F., time 60 min): 97.62%
Relative Amylase Enzyme Activity (amylase; base formula, phosphonate at 0.1% elemental phosphorus level, use solution at 120º F., time 90 min): 99.36%
Relative Amylase Enzyme Activity (amylase; base formula, phosphonate at 0.1% elemental phosphorus level, use solution at 120º F., time 120 min): 92.67%
Relative Amylase Enzyme Activity (amylase; base formula, phosphonate at 0.1% elemental phosphorus level, use solution at 120º F., time 150 min): 98.24%
Relative Amylase Enzyme Activity (amylase; base formula, phosphonate at 0.1% elemental phosphorus level, use solution at 120º F., time 180 min): 93.89%
Relative Amylase Enzyme Activity (amylase; base formula, phosphonate at 0.1% elemental phosphorus level, use solution at 120º F., time 210 min): 107.33%
Relative Amylase Enzyme Activity (amylase; base formula, phosphonate at 0.1% elemental phosphorus level, use solution at 120º F., time 240 min): 103.75%
Stability (effects on enzyme activity) [1]: Yes
Relative Lipase Enzyme Activity in a Use Solution of the All Ash Detergent Composition (lipase; all ash formula, phosphonate 0.3 wt-%, time 0 min): 100.00%
Relative Lipase Enzyme Activity in a Use Solution of the All Ash Detergent Composition (lipase; all ash formula, phosphonate 0.3 wt-%, time 5 min): 87.31%
Relative Lipase Enzyme Activity in a Use Solution of the All Ash Detergent Composition (lipase; all ash formula, phosphonate 0.3 wt-%, time 10 min): 76.38%
Relative Lipase Enzyme Activity in a Use Solution of the All Ash Detergent Composition (lipase; all ash formula, phosphonate 0.3 wt-%, time 20 min): 57.74%
Relative Lipase Enzyme Activity in a Use Solution of the All Ash Detergent Composition (lipase; all ash formula, phosphonate 0.3 wt-%, time 40 min): 40.00%
Relative Lipase Enzyme Activity in a Use Solution of the All Ash Detergent Composition (lipase; all ash formula, phosphonate 0.3 wt-%, time 60 min): 33.56%
Relative Lipase Enzyme Activity in a Use Solution of the All Ash Detergent Composition (lipase; all ash formula, phosphonate 0.3 wt-%, time 90 min): 25.59%
Relative Lipase Enzyme Activity in a Use Solution of the All Ash Detergent Composition (lipase; all ash formula, phosphonate 0.3 wt-%, time 120 min): 21.03%
Relative Lipase Enzyme Activity in a Use Solution of the All Ash Detergent Composition (lipase; all ash formula, phosphonate 0.3 wt-%, time 150 min): 17.27%
Relative Lipase Enzyme Activity in a Use Solution of the All Ash Detergent Composition (lipase; all ash formula, phosphonate 0.3 wt-%, time 180 min): 14.06%
Relative Lipase Enzyme Activity in a Use Solution of the All Ash Detergent Composition (lipase; all ash formula, phosphonate 0.3 wt-%, time 210 min): 12.18%
Relative Lipase Enzyme Activity in a Use Solution of the All Ash Detergent Composition (lipase; all ash formula, phosphonate 0.3 wt-%, time 240 min): 10.79%
lipase stability in all ash formula (lipase; all ash formula, versus same composition with PBTC or HEDP without amine(s), FIG. 6G): more stable
Relative Lipase Enzyme Activity (lipase; phosphonate 0.3 wt-%, use solution at 120° F., time 0 min): 100.00%
Relative Lipase Enzyme Activity (lipase; phosphonate 0.3 wt-%, use solution at 120° F., time 5 min): 83.54%
Relative Lipase Enzyme Activity (lipase; phosphonate 0.3 wt-%, use solution at 120° F., time 10 min): 88.25%
Relative Lipase Enzyme Activity (lipase; phosphonate 0.3 wt-%, use solution at 120° F., time 20 min): 77.15%
Relative Lipase Enzyme Activity (lipase; phosphonate 0.3 wt-%, use solution at 120° F., time 40 min): 62.99%
Relative Lipase Enzyme Activity (lipase; phosphonate 0.3 wt-%, use solution at 120° F., time 60 min): 52.84%
Relative Lipase Enzyme Activity (lipase; phosphonate 0.3 wt-%, use solution at 120° F., time 90 min): 43.46%
Relative Lipase Enzyme Activity (lipase; phosphonate 0.3 wt-%, use solution at 120° F., time 120 min): 35.40%
Relative Lipase Enzyme Activity (lipase; phosphonate 0.3 wt-%, use solution at 120° F., time 150 min): 31.10%
Relative Lipase Enzyme Activity (lipase; phosphonate 0.3 wt-%, use solution at 120° F., time 180 min): 22.42%
Relative Lipase Enzyme Activity (lipase; phosphonate 0.3 wt-%, use solution at 120° F., time 210 min): 24.78%
Relative Lipase Enzyme Activity (lipase; phosphonate 0.3 wt-%, use solution at 120° F., time 240 min): 22.08%
Relative Lipase Enzyme Activity (lipase; phosphonate 0.6 wt-%, use solution at 120º F., time 0 min): 100.00%
Relative Lipase Enzyme Activity (lipase; phosphonate 0.6 wt-%, use solution at 120º F., time 5 min): 95.36%
Relative Lipase Enzyme Activity (lipase; phosphonate 0.6 wt-%, use solution at 120º F., time 10 min): 100.58%
Relative Lipase Enzyme Activity (lipase; phosphonate 0.6 wt-%, use solution at 120º F., time 20 min): 94.94%
Relative Lipase Enzyme Activity (lipase; phosphonate 0.6 wt-%, use solution at 120º F., time 40 min): 93.85%
Relative Lipase Enzyme Activity (lipase; phosphonate 0.6 wt-%, use solution at 120º F., time 60 min): 86.18%
Relative Lipase Enzyme Activity (lipase; phosphonate 0.6 wt-%, use solution at 120º F., time 90 min): 76.99%
Relative Lipase Enzyme Activity (lipase; phosphonate 0.6 wt-%, use solution at 120º F., time 120 min): 71.87%
Relative Lipase Enzyme Activity (lipase; phosphonate 0.6 wt-%, use solution at 120º F., time 150 min): 72.77%
Relative Lipase Enzyme Activity (lipase; phosphonate 0.6 wt-%, use solution at 120º F., time 180 min): 64.17%
Relative Lipase Enzyme Activity (lipase; phosphonate 0.6 wt-%, use solution at 120º F., time 210 min): 63.68%
Relative Lipase Enzyme Activity (lipase; phosphonate 0.6 wt-%, use solution at 120º F., time 240 min): 56.85%
Relative Lipase Enzyme Activity (lipase; phosphonate at 0.1% elemental phosphorus, at 120º F. or at room temperature (as titled), time 0 min): 100.00%
Relative Lipase Enzyme Activity (lipase; phosphonate at 0.1% elemental phosphorus, at 120º F. or at room temperature (as titled), time 5 min): 88.13%
Relative Lipase Enzyme Activity (lipase; phosphonate at 0.1% elemental phosphorus, at 120º F. or at room temperature (as titled), time 10 min): 80.42%
Relative Lipase Enzyme Activity (lipase; phosphonate at 0.1% elemental phosphorus, at 120º F. or at room temperature (as titled), time 20 min): 74.76%
Relative Lipase Enzyme Activity (lipase; phosphonate at 0.1% elemental phosphorus, at 120º F. or at room temperature (as titled), time 40 min): 49.43%
Relative Lipase Enzyme Activity (lipase; phosphonate at 0.1% elemental phosphorus, at 120º F. or at room temperature (as titled), time 60 min): 46.05%
Relative Lipase Enzyme Activity (lipase; phosphonate at 0.1% elemental phosphorus, at 120º F. or at room temperature (as titled), time 90 min): 39.53%
Relative Lipase Enzyme Activity (lipase; phosphonate at 0.1% elemental phosphorus, at 120º F. or at room temperature (as titled), time 120 min): 34.69%
Relative Lipase Enzyme Activity (lipase; phosphonate at 0.1% elemental phosphorus, at 120º F. or at room temperature (as titled), time 150 min): 28.57%
Relative Lipase Enzyme Activity (lipase; phosphonate at 0.1% elemental phosphorus, at 120º F. or at room temperature (as titled), time 180 min): 25.49%
Relative Lipase Enzyme Activity (lipase; phosphonate at 0.1% elemental phosphorus, at 120º F. or at room temperature (as titled), time 210 min): 24.18%
Relative Lipase Enzyme Activity (lipase; phosphonate at 0.1% elemental phosphorus, at 120º F. or at room temperature (as titled), time 240 min): 22.78%
